Measurements published in paper PMC2943150 (Journal of medicinal chemistry, 2009).

Biological target: HIV-1 protease (Human immunodeficiency virus type 1 group M subtype B, UniProt P04585)
Experiment: HIV-1 protease enzyme inhibition, assay protocol of Toth and Marshall
Type: biochemical

| Structure (SMILES) | Ki [nM] |
| --- | --- |
| COc1ccc2c(c1)OCCCC/C=C\CN(C[C@@H](O)[C@H](Cc1ccccc1)NC(=O)O[C@H]1CO[C@H]3OCC[C@H]31)S2(=O)=O [Inhibitor 14e] | 0.017 ± 0.001 |
| COc1ccc2c(c1)OCCCCCCCN(C[C@@H](O)[C@H](Cc1ccccc1)NC(=O)O[C@H]1CO[C@H]3OCC[C@H]31)S2(=O)=O [Inhibitor 15d] | 0.08 ± 0.02 |
